Test results as given in patent US20170209445A1, “KINASE INHIBITORS” (Respivert Limited, priority 2014, published 2017).

Experiments:
PBMCs = assay: LPS-induced IL-8 release in PBMC cells; type: cell-based; conditions: Homo sapiens, LPS-stimulated PBMCs, read-out: IC50 Values for Inhibition of Cytokine Release PBMCs IL-8
Protocol: Peripheral blood mononuclear cells (PBMCs) from healthy subjects are separated from whole blood using a density gradient (Lymphoprep, Axis-Shield Healthcare). The PBMCs are seeded in 96 well plates and treated with compounds at the desired concentration for 2 hours before addition of 1 ng/mL LPS (Escherichia Coli 0111:B4 from Sigma Aldrich) for 24 hours under normal tissue culture conditions (37° C., 5% CO2). The supernatant is harvested for determination of IL-8 and TNFα concentrations by sandwich ELISA (Duo-set, R&D systems) and read on the fluorescence microplate reader (Varioskan® Flash, ThermoFisher Scientific).

Jurkat cells = assay: Cell cytotoxicity assay (Jurkat cell viability); type: cell-based, human; conditions: 24 hours
Protocol: 1×10^5 Jurkat cells (immortalised human T lymphocytes) are added to the appropriate number of wells of a 96 well plate in 100 μL of media (RPMI supplemented with 10% foetal bovine serum). 1 μL of DMSO control (final concentration 1.0% v/v) or test compound (final concentration 20, 5 or 1 μg/mL) is added to the wells and incubated at 37° C., 5% CO2. After 24 hours, the plate is centrifuged at 1200 rpm for 3 minutes and the supernatant discarded. Cells are then resuspended in 150 μL (final concentration 7.5 μg/mL) of propidium iodide (PI) in PBS and incubated at 37° C., 5% CO2 for 15 minutes. After 15 minutes, cells are analysed by flow cytometry (BD accuri) using the FL3 window. The % viability is calculated as the % of cells that are PI negative in the test wells normalised to the DMSO control.

Row | SMILES | IC50 (PBMCs) [nM] | % Viability at 1 μg/mL (Jurkat cells) [%] | % Viability at 5 μg/mL (Jurkat cells) [%] | % Viability at 20 μg/mL (Jurkat cells) [%]
1 | COc1c(NC(=O)c2ccc(C)c(-c3ccc4nc(Nc5ccc(N=S(C)(C)=O)cc5)ncc4c3)c2)cc(C(C)(C)C)cc1NS(C)(=O)=O [Example 7, N-(5-(tert-Butyl)-2-methoxy-3-(methylsulfonamido)phenyl)-3-(2-((4-((dimethyl(oxo)-I6-sulfanylidene)amino)phenyl)amino)quinazolin-6-yl)-4-methylbenzamide] | 3.8 | 79.0 | 54.7 | 49.7
2 | COc1cc(Nc2ncc3cc(-c4cc(C(=O)Nc5cc(C(C)(C)C)cc(NS(C)(=O)=O)c5OC)ccc4C)ccc3n2)ccc1C(=O)N(C)CCN1CCOCC1 [Example 9, 4-((6-(5-((5-(tert-Butyl)-2-methoxy-3-(methylsulfonamido)phenyl)carbamoyl)-2-methylphenyl)quinazolin-2-yl)amino)-2-methoxy-N-methyl-N-(2-morpholinoethyl)benzamide] | 3.1 | 63.0 | 38.4 | 28.7
3 | COCC(=O)Nc1cc(Oc2ccc(NC(=O)Nc3cc(C(C)(C)C)nn3-c3ccc(C)cc3)c3ccccc23)ccn1 [Reference Compound A, N-(4-(4-(3-(3-tert-butyl-1-p-tolyl-1H-pyrazol-5-yl)ureido)naphthalen-1-yloxy)pyridin-2-yl)-2-methoxyacetamide, reference compound] |  | 23.5 | 18.9 | 17.3
4 | C#Cc1cc(Nc2ncc3cc(-c4cc(C(=O)Nc5cc(C(C)(C)C)cc(NS(C)(=O)=O)c5OC)ccc4C)ccc3n2)cc(C(=O)NCCOCCOCCOC)c1 [14(g), N-(5-(tert-Butyl)-2-methoxy-3-(methylsulfonamido)phenyl)-3-(2-((3-ethynyl-5-((2-(2-(2-methoxyethoxy)ethoxy)ethyl)carbamoyl)phenyl)amino)quinazolin-6-yl)-4-methylbenzamide] | 17.3 | 110.1 | 75.5 | 65.4
5 | COc1cc(Nc2ncc3cc(-c4cc(C(=O)Nc5cc(C(C)(C)C)cc(NS(C)(=O)=O)c5OC)ccc4C)ccc3n2)ccc1C(=O)NCC1CCN(C)CC1 [14(ai), 4-((6-(5-((5-(tert-Butyl)-2-methoxy-3-(methylsulfonamido)phenyl)carbamoyl)-2-methylphenyl)quinazolin-2-yl)amino)-2-methoxy-N-((1-methylpiperidin-4-yl)methyl)benzamide] | 7.9 |  |  | 
6 | COc1c(NC(=O)c2ccc(C)c(-c3ccc4nc(Nc5cccc(CP(C)(C)=O)c5)ncc4c3)c2)cc(C(C)(C)C)cc1NS(C)(=O)=O [14(i), N-(5-(tert-Butyl)-2-methoxy-3-(methylsulfonamido)phenyl)-3-(2-((3-((dimethylphosphoryl)methyl)phenyl)amino)quinazolin-6-yl)-4-methylbenzamide] | 6.9 | 69.8 | 8.4 | 2.1
7 | COc1cc(Nc2ncc3cc(-c4cc(C(=O)Nc5cc(C(C)(C)C)cc(NS(C)(=O)=O)c5OC)ccc4C)ccc3n2)ccc1C(=O)NCC(CO)(CO)CO [14(x), 4-((6-(5-((5-(tert-Butyl)-2-methoxy-3-(methylsulfonamido)phenyl)carbamoyl)-2-methylphenyl)quinazolin-2-yl)amino)-N-(3-hydroxy-2,2-bis(hydroxymethyl)propyl)-2-methoxybenzamide] | 7.7 |  |  | 
8 | COc1cc(Nc2ncc3cc(-c4cc(C(=O)Nc5cc(C(C)(C)C)cc(NS(C)(=O)=O)c5OC)ccc4C)ccc3n2)ccc1C(=O)NCCC1CCN(C)CC1 [14(aa), 4-((6-(5-((5-(tert-Butyl)-2-methoxy-3-(methylsulfonamido)phenyl)carbamoyl)-2-methyl-phenyl)quinazolin-2-yl)amino)-2-methoxy-N-(2-(1-methylpiperidin-4-yl)ethyl)benzamide] | 9.5 |  |  | 
9 | COc1c(NC(=O)c2ccc(C)c(-c3ccc4nc(Nc5cc(C#N)cc(OCCN6CCOCC6)c5)ncc4c3)c2)cc(C(C)(C)C)cc1NS(C)(=O)=O [14(b), N-(5-(tert-Butyl)-2-methoxy-3-(methylsulfonamido)phenyl)-3-(2-((3-cyano-5-(2-morpholinoethoxy)phenyl)amino)quinazolin-6-yl)-4-methylbenzamide] | 15.2 |  |  | 
10 | COCCOCCOCCNC(=O)c1ccc(Nc2ncc3cc(-c4cc(C(=O)Nc5cc(C(C)(C)C)cc(NS(C)(=O)=O)c5OC)ccc4C)ccc3n2)cc1OC [14(p), 4-((6-(5-((5-(tert-Butyl)-2-methoxy-3-(methylsulfonamido)phenyl)carbamoyl)-2-methylphenyl)quinazolin-2-yl)amino)-2-methoxy-N-(2-(2-(2-methoxyethoxy)ethoxy)ethyl)benzamide] | 7.5 |  |  | 
11 | COc1cc(Nc2ncc3cc(-c4cc(C(=O)Nc5cc(C(C)(C)C)cc(NS(C)(=O)=O)c5OC)ccc4C)ccc3n2)ccc1C(=O)NCCN1CCN(C)CC1 [14(z), 4-((6-(5-((5-(tert-Butyl)-2-methoxy-3-(methylsulfonamido)phenyl)carbamoyl)-2-methyl-phenyl)quinazolin-2-yl)amino)-2-methoxy-N-(2-(4-methylpiperazin-1-yl)ethyl)benzamide] | 6 |  |  | 
12 | COc1cc(Nc2ncc3cc(-c4cc(C(=O)Nc5cc(C(C)(C)C)cc(NS(C)(=O)=O)c5OC)ccc4C)ccc3n2)ccc1C(=O)NCCN1CCN(C)C(C)(C)C1 [14(al), 4-((6-(5-((5-(tert-Butyl)-2-methoxy-3-(methylsulfonamido)phenyl)carbamoyl)-2-methyl-phenyl)quinazolin-2-yl)amino)-2-methoxy-N-(2-(3,3,4-trimethylpiperazin-1-yl)ethyl)benzamide] | 8.3 |  |  | 
13 | COc1cc(Nc2ncc3cc(-c4cc(C(=O)Nc5cc(C(C)(C)C)cc(NS(C)(=O)=O)c5OC)ccc4C)ccc3n2)ccc1C(=O)NCCCN1CC[S+]([O-])CC1 [Example 11, 4-((6-(5-((5-(tert-Butyl)-2-methoxy-3-(methylsulfonamido)phenyl)carbamoyl)-2-methylphenyl)-quinazolin-2-yl)amino)-2-methoxy-N-(3-(1-oxidothiomorpholino)propyl)benzamide] | 7.6 |  |  | 
14 | COc1cc(Nc2ncc3cc(-c4cc(C(=O)Nc5cc(C(C)(C)C)cc(NS(C)(=O)=O)c5OC)ccc4C)ccc3n2)ccc1C(=O)O [Example 8, 4-((6-(5-((5-(tert-Butyl)-2-methoxy-3-(methylsulfonamido)phenyl)carbamoyl)-2-methylphenyl)quinazolin-2-yl)amino)-2-methoxybenzoic acid] | 4 | 91.1 | 65.8 | 30.6
15 | COc1cc(Nc2ncc3cc(-c4cc(C(=O)Nc5cc(C(C)(C)C)cc(NS(C)(=O)=O)c5OC)ccc4C)ccc3n2)ccc1C(=O)NCCc1cccnc1 [14(ag), 4-((6-(5-((5-(tert-Butyl)-2-methoxy-3-(methylsulfonamido)phenyl)carbamoyl)-2-methylphenyl)quinazolin-2-yl)amino)-2-methoxy-N-(2-(pyridin-3-yl)ethyl)benzamide] | 11.6 |  |  | 
16 | COCCOCCOCCOc1cc(Nc2ncc3cc(-c4cc(C(=O)Nc5cc(C(C)(C)C)cc(NS(C)(=O)=O)c5OC)ccc4C)ccc3n2)cc(OC(F)(F)F)c1 [14(r), N-(5-(tert-Butyl)-2-methoxy-3-(methylsulfonamido)phenyl)-3-(2-((3-(2-(2-(2-methoxy-ethoxy)ethoxy)ethoxy)-5-(trifluoromethoxy)phenyl)amino)quinazolin-6-yl)-4-methylbenzamide] | 49.1 |  |  | 
17 | COCCOCCOCCOc1cc(C#N)cc(Nc2ncc3cc(-c4cc(C(=O)Nc5cc(C(C)(C)C)cc(NS(C)(=O)=O)c5OC)ccc4C)ccc3n2)c1 [14(f), N-(5-(tert-Butyl)-2-methoxy-3-(methylsulfonamido)phenyl)-3-(2-((3-cyano-5-(2-(2-(2-methoxyethoxy)ethoxy)ethoxy)phenyl)amino)quinazolin-6-yl)-4-methylbenzamide] | 10.4 |  |  | 
18 | COc1cc(Nc2ncc3cc(-c4cc(C(=O)Nc5cc(C(C)(C)C)cc(NS(C)(=O)=O)c5OC)ccc4C)ccc3n2)ccc1C(=O)NC1CCS(=O)(=O)CC1 [14(an), 4-((6-(5-((5-(tert-Butyl)-2-methoxy-3-(methylsulfonamido)phenyl)carbamoyl)-2-methylphenyl)quinazolin-2-yl)amino)-N-(1,1-dioxidotetrahydro-2H-thiopyran-4-yl)-2-methoxybenzamide] | 12.3 |  |  | 
19 | COc1cc(Nc2ncc3cc(-c4cc(C(=O)Nc5cc(C(C)(C)C)cc(NS(C)(=O)=O)c5OC)ccc4C)ccc3n2)ccc1C(=O)NC1CCN(C)CC1 [14(ac), 4-((6-(5-((5-(tert-Butyl)-2-methoxy-3-(methylsulfonamido)phenyl)carbamoyl)-2-methylphenyl)quinazolin-2-yl)amino)-2-methoxy-N-(1-methylpiperidin-4-yl)benzamide] | 5.1 |  |  | 
